Reference: publication PMC11882969 (Nature Communications, 2025)
“And” between values parts separate entries of the source, which are not always exact repeats. Equal values may be shown once.

Key:
hCB2 = hCB2 (Homo sapiens, UniProt P34972); assay: TRUPATH BRET2 GoA dissociation, HEK293T; type: cell-based; design: expressed in transfected cells; host or cells: HEK293T cells (ATCC: CRL-3216), transient co-transfection; conditions: for functional response, concentration-response point (FigS7e, normalized): Log[drug], replicate columns
Chain of hCB2 (P34972 whole entry): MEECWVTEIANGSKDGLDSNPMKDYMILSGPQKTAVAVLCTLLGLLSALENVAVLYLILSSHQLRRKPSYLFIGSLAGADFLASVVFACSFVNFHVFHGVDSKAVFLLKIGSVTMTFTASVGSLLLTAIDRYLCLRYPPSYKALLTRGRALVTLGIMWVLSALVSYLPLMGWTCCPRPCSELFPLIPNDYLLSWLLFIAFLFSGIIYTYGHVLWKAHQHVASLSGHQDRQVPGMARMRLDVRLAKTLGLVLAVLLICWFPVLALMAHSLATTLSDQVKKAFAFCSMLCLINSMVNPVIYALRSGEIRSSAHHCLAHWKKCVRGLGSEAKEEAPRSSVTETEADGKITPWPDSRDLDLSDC

hCB1 [1] = target: T1, hCB1 (Homo sapiens, UniProt P21554); assay: Lance Ultra cAMP accumulation assay, CHO cells; type: cell-based; design: expressed in transfected cells; conditions: for normalised cAMP response, concentration-response (Figure2f), replicate values: log[Compound;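 on all read-outs here: human CB1R stably expressed in CHO cells, ligands co-incubated with forskolin at room temperature, read-out is lowering of forskolin-stimulated cAMP accumulation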
T1 sequence (P21554 whole entry): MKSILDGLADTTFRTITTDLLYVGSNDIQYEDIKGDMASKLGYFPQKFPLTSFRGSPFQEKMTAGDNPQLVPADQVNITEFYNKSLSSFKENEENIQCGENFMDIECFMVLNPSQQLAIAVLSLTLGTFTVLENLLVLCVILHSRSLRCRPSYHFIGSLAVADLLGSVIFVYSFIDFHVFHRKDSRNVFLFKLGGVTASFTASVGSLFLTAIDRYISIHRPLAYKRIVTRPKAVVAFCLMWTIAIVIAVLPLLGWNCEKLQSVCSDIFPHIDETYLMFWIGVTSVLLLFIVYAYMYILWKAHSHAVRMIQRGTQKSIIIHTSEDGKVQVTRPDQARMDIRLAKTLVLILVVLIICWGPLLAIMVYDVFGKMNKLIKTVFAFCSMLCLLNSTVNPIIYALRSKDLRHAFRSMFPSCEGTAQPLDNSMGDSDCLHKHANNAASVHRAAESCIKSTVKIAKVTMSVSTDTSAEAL

CB1 (rCB1) = CB1 (rCB1) (Rattus norvegicus, UniProt P20272); assay: Single-point radioligand displacement screen; type: binding; conditions: 10 µM, 1 µM or 300 nM by cell colour (not visible)
Chain of CB1 (rCB1) (P20272 whole entry): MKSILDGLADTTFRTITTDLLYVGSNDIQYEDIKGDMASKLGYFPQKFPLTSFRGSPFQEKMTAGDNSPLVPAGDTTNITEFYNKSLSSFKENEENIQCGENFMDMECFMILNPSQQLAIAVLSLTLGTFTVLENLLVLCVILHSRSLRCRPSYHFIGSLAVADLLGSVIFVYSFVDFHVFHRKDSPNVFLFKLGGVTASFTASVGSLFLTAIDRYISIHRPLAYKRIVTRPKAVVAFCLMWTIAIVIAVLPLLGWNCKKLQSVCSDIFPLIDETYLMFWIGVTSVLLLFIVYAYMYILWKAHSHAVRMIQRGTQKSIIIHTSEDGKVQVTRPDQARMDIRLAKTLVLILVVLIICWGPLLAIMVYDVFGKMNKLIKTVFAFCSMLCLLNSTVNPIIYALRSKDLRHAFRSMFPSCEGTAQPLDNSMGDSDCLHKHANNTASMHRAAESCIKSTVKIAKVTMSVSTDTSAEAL

hCB1 [2] = target: T1, hCB1; assay: bioSensAll ebBRET signaling profiling, hCB1; type: cell-based; design: host or cells: HEK293SL cells, transient PEI transfection; conditions: for Gi1 hCB1 response: Gi1 biosensor; for Gi1 hCB1 / GoB hCB1: single replicate values, FigS6a

COC(=O)C(NC(=O)c1cc(C)n(-c2cccc(C(F)(F)F)c2)n1)c1cccs1 (centres unmarked) [‘60154]
BRET2 + GoA pEC50 (hCB2): 6.2 [5.6 – 6.9] | EC50 (hCB2): 594 nM | Emax (hCB2; HEK-293T): 31% | functional response, concentration-response point (FigS7e, normalized) (hCB2; M = -4.52): 18.671 and 20.9182 and 18.0789 and 16.7004 | functional response, concentration-response point (FigS7e, normalized) (hCB2; M = -5): 15.3625 and 13.9237 and 14.7132 and 15.4107 and 19.4252 and 16.9876 and 18.2783 and 12.2533 and 11.9429 and 13.7725 and 13.3839 and 13.0025 | functional response, concentration-response point (FigS7e, normalized) (hCB2; M = -5.52): 9.963 and 10.999 and 10.5318 and 12.5419 and 11.8092 and 12.1824 and 9.605 and 7.598 and 8.713 and 9.44 and 10.8654 and 8.808 | functional response, concentration-response point (FigS7e, normalized) (hCB2; M = -6): 5.593 and 3.808 and 3.775 and 3.462 and 6.67 and 5.511 and 6.374 and 4.542 and 6.846 and 4.398 and 2.755 and 4.192 | functional response, concentration-response point (FigS7e, normalized) (hCB2; M = -6.52): 2.409 and 1.324 and 2.492 and 1.478 and 2.2654 and 2.677 and 2.607 and 2.647 and 2.733 and 1.4886 and 1.807 and 1.367 | functional response, concentration-response point (FigS7e, normalized) (hCB2; M = -7): 1.643 and 1.038 and 0.587 and 0.6659 and 0.7726 and 0.2984 and 0.761 and 0.6332 and 1.544 and 0.7947 and 0.4011 and 0.3139 | functional response, concentration-response point (FigS7e, normalized) (hCB2; M = -7.52): 0.7104 and 0.5146 and 0.05736 and 0.5245 and 1.192 and 0.7027 and 0.8893 and 0.666 and 0.5954 and 0.6963 and -0.03292 and 0.3929 | functional response, concentration-response point (FigS7e, normalized) (hCB2; M = -8): 0.3645 and 0.5311 and 0.5376 and 0.156 and -0.2264 and 0.2284 and 0.4344 and -0.3685 and 0.1487 and 0.4213 and 0.2144 and 0.1495 | functional response, concentration-response point (FigS7e, normalized) (hCB2; M = -8.52): 0.07184 and -0.1728 and 0.5013 and 0.625 and -0.3869 and 0.7675 and 0.7171 and -0.3804 and 0.4049 and 0.07444 and 0.02209 and 0.4671 | EC50 (hCB1 [1]): 351 nM | Lance Ultra cAMP pEC50 (hCB1 [1]): 6.5 [7.0] | Emax (hCB1 [1]; CHO): 67% | normalised cAMP response, concentration-response (Figure2f), replicate values (hCB1 [1]; M] -5): 47.6767 and 42.0056 and 42.3397 | normalised cAMP response, concentration-response (Figure2f), replicate values (hCB1 [1]; M] -6): 18.5649 and 64.1261 and 62.9313 and 54.4312 | normalised cAMP response, concentration-response (Figure2f), replicate values (hCB1 [1]; M] -7): 60.7575 and 85.7016 and 74.1727 and 91.7418 | normalised cAMP response, concentration-response (Figure2f), replicate values (hCB1 [1]; M] -8): 71.1204 and 91.8821 and 99.3075 and 104.869 | normalised cAMP response, concentration-response (Figure2f), replicate values (hCB1 [1]; M] -9): 80.377 and 105.423 and 95.8256 and 102.017 | normalised cAMP response, concentration-response (Figure2f), replicate values (hCB1 [1]; M] -10): 87.3077 and 96.5214 and 96.3615 and 92.9435 | normalised cAMP response, concentration-response (Figure2f), replicate values (hCB1 [1]; M] -11): 91.1852 and 100.567 and 97.003 and 102.336 | normalised cAMP response, concentration-response (Figure2f), replicate values (hCB1 [1]; M] -12): 91.9633 and 106.344 and 93.1819 and 97.7717 | % 1H-CP-55,940 displacement (mean) from single point screen (CB1 (rCB1)): 97.23% | Gi1 hCB1 response (hCB1 [2]; Log [Compound] (M) -4.22186): 135.687 | Gi1 hCB1 response (hCB1 [2]; Log [Compound] (M) -4.63927): 128.615 | Gi1 hCB1 response (hCB1 [2]; Log [Compound] (M) -5.05788): 93.8563 | Gi1 hCB1 response (hCB1 [2]; Log [Compound] (M) -5.47381): 94.0353 | Gi1 hCB1 response (hCB1 [2]; Log [Compound] (M) -5.89285): 102.272 | Gi1 hCB1 response (hCB1 [2]; Log [Compound] (M) -6.31878): 90.7452 | Gi1 hCB1 response (hCB1 [2]; Log [Compound] (M) -6.72585): 85.0156 | Gi1 hCB1 response (hCB1 [2]; Log [Compound] (M) -7.14267): 90.8795 | Gi1 hCB1 response (hCB1 [2]; Log [Compound] (M) -7.55284): 57.4417 | Gi1 hCB1 response (hCB1 [2]; Log [Compound] (M) -8): 57.3074 | Gi1 hCB1 response (hCB1 [2]; Log [Compound] (M) -8.22186): 41.0808 | Gi1 hCB1 response (hCB1 [2]; Log [Compound] (M) -8.39794): 29.6663 | Gi1 hCB1 response (hCB1 [2]; Log [Compound] (M) -8.68787): 9.254 | Gi1 hCB1 response (hCB1 [2]; Log [Compound] (M) -9.15521): -1.31 | Gi1 hCB1 response (hCB1 [2]; Log [Compound] (M) -9.61989): -12.1646 | Gi1 hCB1 response (hCB1 [2]; Log [Compound] (M) -10.0969): 3.838 | Gi1 hCB1 response (hCB1 [2]; Log [Compound] (M) -10.5529): 8.852 | Gi1 hCB1 response (hCB1 [2]; Log [Compound] (M) -11.0177): -14.1566 | Gi1 hCB1 response (hCB1 [2]; Log [Compound] (M) -11.4949): -8.897 | Gi1 hCB1 response (hCB1 [2]; Log [Compound] (M) -11.9208): 6.613 | Gi1 hCB1 response (hCB1 [2]; Log [Compound] (M) -12.3979): -8.651 | Gi1 hCB1 response (hCB1 [2]; Log [Compound] (M) -12.8861): -7.89 | Gi1 hCB1 response (hCB1 [2]; Log [Compound] (M) -13, individual replicate values): -1.847 and -6.9945 | Gi1 hCB1 (hCB1 [2]; Log [Compound] (M) -4.22186): 97.0901 | GoB hCB1 (hCB1 [2]; Log [Compound] (M) -4.22186): 92.7297 | Gi1 hCB1 (hCB1 [2]; Log [Compound] (M) -4.63927): 95.1785 | GoB hCB1 (hCB1 [2]; Log [Compound] (M) -4.63927): 96.2724 | Gi1 hCB1 (hCB1 [2]; Log [Compound] (M) -5.05788): 93.4672 | GoB hCB1 (hCB1 [2]; Log [Compound] (M) -5.05788): 98.1786 | Gi1 hCB1 (hCB1 [2]; Log [Compound] (M) -5.47381): 90.2143 | GoB hCB1 (hCB1 [2]; Log [Compound] (M) -5.47381): 107.08 | Gi1 hCB1 (hCB1 [2]; Log [Compound] (M) -5.89285): 87.9019 | GoB hCB1 (hCB1 [2]; Log [Compound] (M) -5.89285): 95.1574 | Gi1 hCB1 (hCB1 [2]; Log [Compound] (M) -6.31878): 75.1986 | GoB hCB1 (hCB1 [2]; Log [Compound] (M) -6.31878): 99.5993 | Gi1 hCB1 (hCB1 [2]; Log [Compound] (M) -6.72585): 72.9632 | GoB hCB1 (hCB1 [2]; Log [Compound] (M) -6.72585): 94.8877 | Gi1 hCB1 (hCB1 [2]; Log [Compound] (M) -7.14267): 69.0474 | GoB hCB1 (hCB1 [2]; Log [Compound] (M) -7.14267): 78.6487 | Gi1 hCB1 (hCB1 [2]; Log [Compound] (M) -7.55284): 54.4325 | GoB hCB1 (hCB1 [2]; Log [Compound] (M) -7.55284): 63.3449 | Gi1 hCB1 (hCB1 [2]; Log [Compound] (M) -8): 27.0835 | GoB hCB1 (hCB1 [2]; Log [Compound] (M) -8): 30.6512 | Gi1 hCB1 (hCB1 [2]; Log [Compound] (M) -8.22186): 23.9076
